Data set [1] can be described thus: Half life in dogs. The class given is ADME, organism-based, Canis lupus familiaris. The settings on record: dog, in vivo.
Data set [2] is described as follows: Bioavailability in dog. Particulars: in vivo. Format: ADME, organism-based, Canis lupus familiaris.
The nature of data set [3]: Maximum concentration was determined. Format: ADME, organism-based, Canis lupus familiaris. Particulars: dog, in vivo.
Data set [4] is described as follows: Area under curve in dogs. Particulars: dog, in vivo. The class given is ADME, organism-based, Canis lupus familiaris.
For data set [5], the system named is Human immunodeficiency virus 1. As to the kind of experiment: Concentration required to control the spread of HIV mutant strain 4X virus. The class given is functional. The settings on record: read-out: CIC95.
Data set [6] relates to Human immunodeficiency virus 1. The data set can be described thus: Concentration required to control the spread of HIV mutant strain K-60C. The settings on record: read-out: CIC95. Format: functional.
The subject of data set [7] is Human immunodeficiency virus 1. As to the kind of experiment: Concentration required to control the spread of HIV mutant strain Q-60C. Format: functional. Particulars: read-out: CIC95.
The test system of data set [8] is Human immunodeficiency virus 1. The data set can be described thus: Concentration required to control the spread of HIV mutant strain V-18C. The class given is functional. Particulars: read-out: CIC95.
Data set [9] deals with T1, Human immunodeficiency virus type 1 protease (Human immunodeficiency virus 1, UniProt Q72874). As to the kind of experiment: Inhibitory concentration required to inhibit cleavage of a substrate by the wild-type HIV-1 protease enzyme.
The test system of data set [10] is Human immunodeficiency virus 1. The data set can be described thus: (§1) Concentration required to control the spread of HIV mutant strain WT. Format: functional. Particulars: read-out: CIC95.
For a further data set, the system named is MT4. The data set can be described thus: Concentration required to inhibit the spread of viral infection in MT-4 human T-lymphoid cells infected by the NL4-3 virus. Format: functional. The settings on record: read-out: CIC95.
The target of data set [11] is T1, Human immunodeficiency virus type 1 protease. As to the kind of experiment: Inhibitory concentration required to inhibit cleavage of a substrate by the wild-type HIV-1 Protease.
Data set [12] is described as follows: Half life was determined. The settings on record: dog, in vivo. Format: ADME, organism-based, Canis lupus familiaris.
Data set [13] is described as follows: Area under curve was determined. The class given is ADME, organism-based, Canis lupus familiaris. The settings on record: dog, in vivo.
Data set [14] in a line: Bioavailability. Format: ADME, organism-based, Canis lupus familiaris. Particulars: dog, in vivo.
Data set [15] deals with Human immunodeficiency virus 1. Described as §1. The settings on record: Human immunodeficiency virus 1, read-out: CIC95.

Molecules are shown by their SMILES.

For orientation: half-life means how long it takes for the measured level to halve. Low values mean fast loss, high ones slow loss. As a reminder, the bioavailability is the share of a dose that reaches the circulation, judged against a reference dose that is usually intravenous. Low readings indicate little systemic uptake, high ones much systemic uptake. Broadly, the Cmax is the highest concentration seen after dosing. One may read the AUC as the area under the concentration-time curve, a measure of exposure. One may read the IC50 as the midpoint of a concentration-inhibition curve. A lower IC50 goes with greater potency in that assay.

`CC(C)(C)NC(=O)[C@@H]1CN(C(C)(C)c2cc3cnccc3o2)CCN1C[C@@H](O)C[C@@H](Cc1ccccc1)C(=O)N[C@H]1c2ccccc2OC[C@H]1O`: the half-life in data set [1] was 62.4 min. In data set [2], this molecule registered a bioavailability of 81%. For the same molecule, in data set [3], the Cmax worked out at 8.85 µM. Also, the AUC in [4] worked out at 7.43 µM·h. For the same molecule, the IC95 is 31 nM in [5]; 500 nM in [6]; 250 nM in data set [7]; 250 nM in data set [8]; below 8 nM in [10]; below 8 nM in the data set on MT4. In data set [9], this molecule registered a concentration for half-maximal inhibition (IC50) of 0.075 nM.

As for `CC(C)(C)NC(=O)[C@@H]1CN(C(C)(C)c2cccnc2)CCN1C[C@@H](O)C[C@@H](Cc1ccccc1)C(=O)N[C@H]1c2ccccc2C[C@H]1O`, the IC95 in the data set with MT4 worked out at 50 nM. 1.16 nM corresponded to half-maximal inhibition in data set [11] (IC50).

Regarding `CC(C)(C)NC(=O)[C@@H]1CN(Cc2cc3cnccc3o2)CCN1C[C@@H](O)C[C@@H](Cc1ccccc1)C(=O)N[C@H]1c2ccccc2C[C@H]1O`, in the data set with MT4, the IC95 stood at 15 nM. Also, the half-maximal inhibitory concentration (IC50) in data set [11] turned out to be 0.23 nM.

For the molecule `CC(C)(C)NC(=O)[C@@H]1CN(Cc2cccnc2)CCN1C[C@@H](O)C[C@@H](Cc1ccccc1)C(=O)N[C@H]1c2ccccc2C[C@H]1O.O` [INDINAVIR], in [12], the half-life was 38 min. In addition, in data set [13], the exposure (AUC) stood at 12.5 µM·h. The molecule also gave a bioavailability in [14] of 71.6%. Moreover, the IC95 in data set [5] is 500 nM; in data set [6], above 3000 nM; in data set [7], above 1000 nM; in data set [8], 1500 nM; in data set [15], 50.5 nM; in the data set on MT4, 50 nM.

`CC(C)(C)NC(=O)[C@@H]1CN(C(C)(C)c2cc3cnccc3o2)CCN1C[C@@H](O)C[C@@H](Cc1ccccc1)C(=O)N[C@H]1c2ccccc2C[C@H]1O` gave a half-life in data set [1] of 47 min. In data set [2], this molecule had a bioavailability of 44.3%. Besides, the concentration in data set [3] peaked (Cmax) at 16.6 µM. Further, the exposure (AUC) in data set [4] is 14.1 µM·h. Also, the IC95 is 625 nM in data set [5]; above 1000 nM in data set [6]; above 1000 nM in [7]; above 1000 nM in data set [8]; 15 nM in data set [10]; 15 nM with MT4. In addition, the IC50 in data set [11] was found to be 0.15 nM.

(Values after ChEMBL document CHEMBL1135859, “Indinavir analogues with blocked metabolism sites as HIV protease inhibitors with improved pharmacological profiles and high potency against PI-resistant viral strains” (Bioorg Med Chem Lett, 2002).)
